Measurements taken from US20220280594A1, “APPLICATION OF POLYPEPTIDE OR DERIVATIVE THEREOF” (CHENGDU HUITAI BIOMEDICINE CO., LTD., priority 2019, published 2022).
Ends that are not written are not given here. PEG = not defined here

Experiments:
Type in all cases: cell-based
[1] = test system: human non-small cell lung cancer cells (A549); test: scratch assay, migration of A549 cells; conditions: A549, 10 μM, 48 hours; control group 75.31 ± 8.19
Description: (§1) In the scratch assay, the cell migration rate was negatively correlated with the inhibitory effect of the drug component on tumor cell migration ability. The cell migration inhibition experiment was described as follows: tumor cells were cultured in vitro, cells in logarithmic growth phase were collected and seeded evenly in a 24-well plate at a density of 1-2×10^5 cells/well; the cells were cultured in a cell incubator until a monolayer was formed; a scratch tool was used to make a “-” (straight) scratch on the monolayer of cells; the cells were washed 1-3 times with PBS, and a medium (with 2% fetal bovine serum) containing specific test components was added to the culture. Experimental grouping: PBS control group; polypeptide or derivative thereof treatment group (N1-N54), 10 μM. Three independent parallel wells were set up in each group, and the cells were cultured continuously in a cell incubator for 48 hours. […] At least 3 representative images for each well were taken. ImageJ software was used to count the migration distance of the cells, and the cell migration rate was calculated as: cell migration rate (%)=(width of original scratch−width of current scratch)/width of original scratch×100.
This example was a scratch assay to evaluate the inhibitory effect of the polypeptide or derivative thereof (N1-N54) on the migration ability of human non-small cell lung cancer (A549). The experimental method was as described in Example 2.

[2] = test system: human liver cancer cells (HepG2); test: scratch assay, migration of HepG2 cells; conditions: HepG2, 10 μM, 48 hours; control group 71.01 ± 6.63
Description: as §1
This example was a scratch assay to evaluate the inhibitory effect of the polypeptide or derivative thereof (N1-N54) on the migration ability of human liver cancer cells (HepG2). The experimental method was as described in Example 2.

[3] = test system: human breast cancer cells (MDA-MB-453); test: scratch assay, migration of MDA-MB-453 cells; conditions: MDA-MB-453, 10 μM, 48 hours; control group 32.42 ± 2.04
Description: as §1
This example was a scratch assay to evaluate the inhibitory effect of the polypeptide or derivative thereof (N1-N54) on the migration ability of human breast cancer cells (MDA-MB-453). The experimental method was as described in Example 2.

[4] = test system: human breast cancer cells (MCF-7); test: scratch assay, migration of MCF-7 cells; conditions: MCF-7, 10 μM, 48 hours; control group 30.97 ± 1.79
Description: as §1
This example was a scratch assay to evaluate the inhibitory effect of the polypeptide or derivative thereof (N1-N54) on the migration ability of human breast cancer cells (MCF-7). The experimental method was as described in Example 2.

[5] = test system: human oral epidermoid carcinoma KB cells; test: scratch assay, migration of KB cells; conditions: 10 μM, 48 hours, control group 54.03 ± 4.21
Description: as §1
This example was a scratch assay to evaluate the inhibitory effect of the polypeptide or derivative thereof (N1-N54) on the migration ability of human oral epidermoid carcinoma cells (KB). The experimental method was as described in Example 2.

| Substance | Migration rate (%) (mean ± SD, P) [1] | Migration rate (%) (mean ± SD, P) [2] | Migration rate (%) (mean ± SD, P) [3] | Migration rate (%) (mean ± SD, P) [4] | Migration rate (%) (mean ± SD, P) [5] |
| --- | --- | --- | --- | --- | --- |
| N33: SEQ ID NO: 1 with deletion of positions 1-5, addition of one amino acid and PEG modification at the carboxyl terminal (LAKENVTQDAEDNC-{PEG}; reading uncertain) | 33.22 ± 4.51,** % | 19.27 ± 8.14,*** % | 10.76 ± 4.13,*** % | 18.97 ± 2.44,* % | 6.01 ± 1.62,*** % |
| N34: SEQ ID NO: 1 with A15R, addition of one amino acid at the carboxyl terminal, PEG modification at the amino terminal ({PEG}-YRVRFLAKENVTQDREDNC; reading uncertain) | 30.51 ± 8.12,** % | 18.58 ± 7.87,*** % | 9.57 ± 3.68,*** % | 15.23 ± 4.39,* % | 12.88 ± 1.71,*** % |
| N35: SEQ ID NO: 1 with A15R, addition of one amino acid and PEG modification at the carboxyl terminal (YRVRFLAKENVTQDREDNC-{PEG}; reading uncertain) | 32.27 ± 9.53,** % | 16.83 ± 7.92,*** % | 8.46 ± 2.77,*** % | 17.38 ± 2.55,* % | 6.07 ± 2.30,*** % |
| N37: SEQ ID NO: 1 with addition of two amino acids to the carboxyl terminal and PEG modification at the amino terminal ({PEG}-YRVRFLAKENVTQDAEDNCT; reading uncertain) | 49.45 ± 10.09,* % | 13.81 ± 6.14,*** % | 15.13 ± 3.55,** % | 8.64 ± 3.76,** % | 24.48 ± 2.51,* % |
| N38: SEQ ID NO: 1 with one amino acid added at each terminal and PEG modification at the carboxyl terminal (FYRVRFLAKENVTQDAEDNC-{PEG}; reading uncertain) | 46.92 ± 4.49,** % | 12.81 ± 7.32,*** % | 12.46 ± 2.5,*** % | 6.93 ± 2.24,** % | 15.57 ± 3.65,* % |
| N39: SEQ ID NO: 1 with addition of two amino acids and PEG modification at the carboxyl terminal (YRVRFLAKENVTQDAEDNTC-{PEG}; reading uncertain) | 56.39 ± 6.30,* % | 15.73 ± 6.79,*** % | 11.02 ± 6.8,** % | 7.74 ± 2.46,** % | 9.21 ± 4.20,*** % |
| N40: SEQ ID NO: 1 with deletion of positions 1-5 and 15-18, PEG at the amino terminal, two amino acids added at the carboxyl terminal ({PEG}-LAKENVTQDRC; reading uncertain) | 20.15 ± 8.91,** % | 32.55 ± 4.09,** % | 13.88 ± 6.51,** % | 4.36 ± 1.35,*** % | 6.47 ± 4.39,*** % |
| N41: SEQ ID NO: 1 with addition of two amino acids at the amino terminal, deletion of position 18, PEG at the carboxyl terminal (FRYRVRFLAKENVTQDAED-{PEG}; reading uncertain) | 56.03 ± 3.75,* % | 25.59 ± 6.26,*** % | 11.5 ± 3.23,*** % | 5.19 ± 2.94,*** % | 20.01 ± 2.07,** % |
| N42: SEQ ID NO: 1 with deletion of positions 1-5 and 15-18, PEG at the amino terminal, one amino acid added at the carboxyl terminal ({PEG}-LAKENVTQDR; reading uncertain) | 60.74 ± 3.40,* % | 30.92 ± 4.57,** % | 14.12 ± 9.89,** % | 10.04 ± 2.28,** % | 8.92 ± 2.65,*** % |
| N43: SEQ ID NO: 1 with addition of one amino acid at the amino terminal, deletion of position 18, PEG at the carboxyl terminal (RYRVRFLAKENVTQDAED-{PEG}; reading uncertain) | 57.74 ± 5.39,* % | 26.54 ± 7.89,** % | 10.38 ± 6.04,** % | 7.83 ± 3.42,** % | 11.22 ± 1.74,*** % |
| N45: SEQ ID NO: 1 with V11R, deletion of positions 1-5 and 15-18, PEG modification at the carboxyl terminal (LAKENRTQD-{PEG}; reading uncertain) | 56.03 ± 4.21,* % | 52.98 ± 4.08,* % | 5.53 ± 2.87,*** % | 17.06 ± 2.87,* % | 8.79 ± 2.28,*** % |
| N47: SEQ ID NO: 1 with N18R, deletion of positions 1-2, one amino acid added and PEG at the carboxyl terminal (VRFLAKENVTQDAEDRC-{PEG}; reading uncertain) | 54.66 ± 4.73,* % | 54.67 ± 7.02,* % | 14.66 ± 2.51,*** % | 18.41 ± 2.35,* % | 8.82 ± 1.89,*** % |
| N48: SEQ ID NO: 1 with A7R, deletion of position 11 and position 18, PEG modification at the carboxyl terminal (YRVRFLRKENTQDAED-{PEG}; reading uncertain) | 22.04 ± 3.01,*** % | 25.43 ± 5.00,*** % | 12.62 ± 3.25,** % | 15.62 ± 2.70,* % | 9.09 ± 4.23,*** % |
| N49: SEQ ID NO: 1 with A7R, deletion of positions 1-2 and position 18, PEG modification at the carboxyl terminal (VRFLRKENVTQDAED-{PEG}; reading uncertain) | 27.20 ± 6.23,** % | 16.45 ± 5.88,*** % | 15.79 ± 4.48,** % | 7.29 ± 3.80,** % | 16.51 ± 3.93,** % |
| N50: SEQ ID NO: 1 with N18R, addition of 2 amino acid at the carboxyl terminal, PEG modification at the amino terminal ({PEG}-YRVRFLAKENVTQDAEDRCT; reading uncertain) | 57.74 ± 4.39,* % | 16.03 ± 4.37,*** % | 18.35 ± 3.91,** % | 6.83 ± 4.55,** % | 15.97 ± 2.93,** % |
